Entries after “also recorded” stand apart in the source; their conditions may differ. Counter-ions that a name gives are not always drawn. Like-named read-outs stand apart in the source and are kept apart here. Blank lines part the entries; values can stand above or below the compound they belong to.
Legend:
[1] = molecular target: β-lactamase Tal 3636 CcrA (Bacteroides fragilis, UniProt P25910); experiment: biochemical; type: biochemical
Description: Representative compounds of the present invention are also tested to determine inhibition of an isolated metallo enzyme Group 3, the β-lactamase Tal 3636 CcrA. […] In the CI assay, enzyme is added last to a mixture of inhibitor and buffer. In the TDI assay, nitrocefin is added last to a mixture of enzyme and inhibitor that had been incubating for approximately 7 minutes.

[2] = molecular target: PC1 (Penase) (Staphylococcus aureus, UniProt P00807); experiment: Spectrophotometric inhibition with 10 minute preincubation, nitrocefin substrate; type: biochemical
[3] = system: E. cloacae + P99; experiment: MIC of piperacillin, broth serial two-fold dilutions, alone or 1:1 with inhibitor; conditions: piperacillin alone
[4] = system: E. coli 300 + P99 (cephase); experiment: as above; conditions: piperacillin alone
[5] = system: E. coli + TEM-1; experiment: as above; conditions: piperacillin alone
[6] = system: E. coli strains containing β-lactamases; experiment: Microbiological testing with piperacillin, β-lactamase-containing strains (summary in words); conditions: β-lactamase-producing strains
[7] = system: E. coli 300; experiment: MIC of piperacillin, broth serial two-fold dilutions, alone or 1:1 with inhibitor; conditions: piperacillin alone
[8] = system: E. coli 300 + CcrA (metallo-enzyme); experiment: as above; conditions: piperacillin alone
[9] = molecular target: P99 (Cephase) (Enterobacter cloacae, UniProt P05364); experiment: Spectrophotometric inhibition with 10 minute preincubation, nitrocefin substrate; type: biochemical; conditions: for IC50: 10 minute preincubation, 25° C.
[10] = molecular target: CcrA (Metallo) (Bacteroides fragilis, UniProt P25910); experiment: as above; type: biochemical; conditions: for IC50: 10 minute preincubation, 25° C.
[11] = molecular target: metallo-β-lactamase (Bacteroides fragilis, UniProt P25910); experiment: Long term inactivation of the metallo-β-lactamase, residual activity on nitrocefin; type: biochemical; conditions: for remaining activity at 8 µM: 42 s, 8 μM inhibitor, after 0.7 minutes, read-out: control activity of metallo-β-lactamase remaining
Description: To test for long term inactivation of the metallo-β-lactamase, the inhibitors are mixed with enzyme and incubated overnight. Enzyme activity is tested for at periodic intervals by diluting the enzyme-inhibitor mixture into nitrocefin and comparing the enzymatic activity against that of an enzyme incubated only in assay broth. […].

[12] = molecular target: TEM-2 (Bd Spectrum) (Escherichia coli, UniProt P62593, Q37K); type: biochemical; conditions: Table III
[13] = CI: enzyme added last, 0.010M HEPES, pH 7.4, nitrocefin 100 μg/ml, read-out: IC50 CI HEPES
[14] = CI: enzyme added last, 0.05M phosphate buffer, pH 7.0, nitrocefin 100 μg/ml, read-out: IC50 CI PHOSPHATE
[15] = TDI: approximately 7 minutes incubation, nitrocefin added last, 0.010M HEPES, pH 7.4, read-out: IC50 TDI HEPES
[16] = TDI: approximately 7 minutes incubation, nitrocefin added last, 0.05M phosphate buffer, pH 7.0, read-out: IC50 TDI PHOSPHATE
[17] = 10 minute preincubation, 25° C., read-out: IC50 PC1 (Penase)
[18] = TDI: approximately 7 minutes incubation, nitrocefin added last, 0.010M HEPES, pH 7.4, 7 min, read-out: IC50 TDI HEPES
[19] = TDI: approximately 7 minutes incubation, nitrocefin added last, 0.05M phosphate buffer, pH 7.0, 7 min, read-out: IC50 TDI PHOSPHATE

IC50 [1, 13]: > 250 µM
IC50 [1, 14]: > 250 µM
IC50 [1, 15]: 77 µM
IC50 [1, 16]: 120 µM
SMILES: CCC1=NOC(CC2C(=O)N3C(C(=O)O)C(C)(C)S(=O)(=O)C23)C1 (single isomer, unassigned) [Example 12]

SMILES: C[C@]1(Cn2ccnn2)[C@H](C(=O)O)N2C(=O)C[C@H]2S1(=O)=O [Tazobactam, tazobactam, reference compound]
IC50 [2]: 0.032 µM

SMILES: CCN1CCN(C(=O)N[C@@H](C(=O)N[C@@H]2C(=O)N3[C@@H]2SC(C)(C)[C@@H]3C(=O)O)c2ccccc2)C(=O)C1=O [Piperacillin, piperacillin]
Minimum Inhibitory Concentration of Piperacillin [3]: 128 µg/mL
Minimum Inhibitory Concentration of Piperacillin [4]: 16 µg/mL
Minimum Inhibitory Concentration of Piperacillin [5]: > 1024 µg/mL
Microbiological activity / effect on MICs of piperacillin (in words) [6]: decreased microbiological activity (increased MICs) in E. coli strains that had β-lactamases introduced into them
Minimum Inhibitory Concentration of Piperacillin [7]: 1 µg/mL
Minimum Inhibitory Concentration of Piperacillin [8]: 4 µg/mL

IC50 [1, 13]: 18 µM
IC50 [1, 14]: 48 µM
IC50 [1, 15]: 2.4 µM
IC50 [1, 16]: 6 µM
SMILES: CC1(C)[C@H](C(=O)O)N2C(=O)[C@@H](CC3CC(Br)=NO3)[C@H]2S1(=O)=O (single isomer, unassigned) [Example 16, 4-Thia-1-azabicyclo[3.2.0]heptane-2-carboxylic acid, 6-[(3-bromo-4,5-dihydro-5-isoxazolyl)methyl]-3,3-dimethyl-7-oxo-, 4,4-dioxide, sodium salt, [2S-[2α,5α,6β(R* or S*)]]-]

SMILES: CC1(C)[C@H](C(=O)O)N2C(=O)C[C@H]2S1(=O)=O [Sulbactam, sulbactam, reference compound]
IC50 [2]: 0.08 µM

SMILES: CC(=O)OC(C1CC(c2ccc(C)cc2)=NO1)[C@@H]1C(=O)N2[C@@H](C(=O)O)C(C)(C)S(=O)(=O)[C@H]12 (stereo partly drawn) [Example 10, 4-Thia-1-azabicyclo[3.2,0]heptane-2-carboxylic acid, 6-[(acetyloxy)[4,5-dihydro-3-(4-methylphenyl)-5-isoxazolyl]methyl]-3,3-dimethyl-7-oxo-, sodium salt, 4,4-dioxide, [2S-(2α, 5α, 6β)]-]
Microbiological activity / effect on MICs of piperacillin (in words) [6]: lowers the MICs of piperacillin for all the E. coli strains containing β-lactamases
IC50 [1, 13]: 100 µM
IC50 [1, 14]: 210 µM
IC50 [1, 15]: 3.9 µM
IC50 [1, 16]: 3.2 µM
IC50 [9]: 2.4 µM
IC50 [10]: 16 µM
remaining activity at 8 µM [11]: 45%
enzyme activity lost ([11]; after overnight incubation): > 99%
IC50 [2, 17]: 8 µM

IC50 [1, 13]: 48 µM
IC50 [1, 14]: 33 µM
IC50 [1, 15]: 3.5 µM
IC50 [1, 16]: 9.6 µM
SMILES: CC1(C)[C@H](C(=O)O)N2C(=O)[C@@H](CC3CC(c4ccsc4)=NO3)[C@H]2S1(=O)=O (single isomer, unassigned) [Example 14, 4-Thia-1-azabicyclo[3.2.0.]heptane-2-carboxylic acid, 6-[[4,5-dihydro-3-(3-thienyl)-5-isoxazolyl]methyl]-3,3-dimethyl-7-oxo-, 4,4-dioxide, sodium salt, [2S-[2α, 5α, 6β(R* or S*)]]-]

SMILES: Cc1ccc(C2=NOC(C[C@@H]3C(=O)N4[C@@H](C(=O)O)C(C)(C)S(=O)(=O)[C@H]34)C2)cc1 (stereo partly drawn) [Example 4, 4-Thia-1-azabicyclo[3.2.0]heptane-2-carboxylic acid, 6-[[4,5-dihydro-3-(4-methylphenyl)-5-isoxazolyl]-methyl]-3,3-dimethyl-7-oxo-, sodium salt, 4,4-dioxide, [2R-[2α,5α,6β(R*)]]-]
Microbiological activity / effect on MICs of piperacillin (in words) [6]: lowers the MICs for all the β-lactamases-producing strains; also recorded: more potent in vitro activity against the P99 cephase than the product of Example 10
IC50 [1, 13]: 9.7 µM
IC50 [1, 14]: 16 µM
IC50 [1, 18]: 1.3 µM
IC50 [1, 19]: 2 µM
IC50 [9]: 0.0028 µM
Inhibition of P99 Group 1 cephalosporinase (in words) ([9]; Table III): very potent inhibitor of the P99 Group 1 cephalosporinase
IC50 [10]: 0.65 µM
Inhibition of Group 3 metallo-β-lactamases (in words) ([10]; Table III): inhibited about equally
Inhibition of 2b broad spectrum β-lactamase (in words) [12]: inhibited about equally
remaining activity at 8 µM [11]: 44%
metalloenzyme activity recovered ([11]; after overnight incubation): 71%
IC50 [2, 17]: 0.72 µM
Inhibition of PC1 Group 2a penicillinase (in words) ([2]; Table III): inhibited about equally

SMILES: Cc1ccc(C2=NOC(C[C@@H]3C(=O)N4[C@@H](C(=O)O)C(C)(C)S(=O)(=O)[C@H]34)C2)cc1 (stereo partly drawn) [Example 5, 4-Thia-1-azabicyclo[3.2.0.]heptane-2-carboxylic acid, 6-[[4,5-dihydro-3-(4-methylphenyl)-5-isoxazolyl]methyl]-3,3-dimethyl-7-oxo-, sodium salt, 4,4-dioxide, [2R-[2α,5α,6β(S*)]]-]
IC50 [1, 13]: 27 µM
IC50 [1, 14]: 68 µM
IC50 [1, 18]: 2 µM
IC50 [1, 19]: 6.9 µM
